Test: Critical temperature and normal boiling point of heat pump working fluids
Type: physicochemical
Conditions: working fluid in a heat pump (TC = 150° C., TE = 100° C.)

SMILES | critical temperature [°C] | normal boiling point [°C]
COCC(F)(F)C(F)C(F)(F)F (stereo not shown) [1.1.1.2.3.3. hexafluoro butyl methyl ether] | 236 | 87
FC(F)(F)C(F)(F)C(F)(F)C1(F)OC(F)(F)C(F)(F)C1(F)F (stereo not shown) [perfluoro-2-propyloxolane] | 206 | 79

Source: US4736045A, “Process for fluorinating ethers” (priority 1983, dated 1988)
